How the values were obtained:
[1] = molecular target: T1, 5-HT1A receptor (Rattus norvegicus, UniProt P19327); test: Screening: competitive binding test to 5-HT1A receptor using [3H]-8-OH-DPAT, rat hippocampi membrane protein; conditions: [3H]-8-OH-DPAT 1.28 nM; for inhibition at 10 µM / inhibition at 0.1 µM: read-out: Inhibition percent (I %), competitive binding to 5-HT1A receptor
T1 construct: the content of 5-HT1A receptor extracted from rat hippocampi was 5.5 mg/ml; from tissue; host or cells: Wistar rat hippocampus, membrane preparation
T1 sequence (P19327 1-422): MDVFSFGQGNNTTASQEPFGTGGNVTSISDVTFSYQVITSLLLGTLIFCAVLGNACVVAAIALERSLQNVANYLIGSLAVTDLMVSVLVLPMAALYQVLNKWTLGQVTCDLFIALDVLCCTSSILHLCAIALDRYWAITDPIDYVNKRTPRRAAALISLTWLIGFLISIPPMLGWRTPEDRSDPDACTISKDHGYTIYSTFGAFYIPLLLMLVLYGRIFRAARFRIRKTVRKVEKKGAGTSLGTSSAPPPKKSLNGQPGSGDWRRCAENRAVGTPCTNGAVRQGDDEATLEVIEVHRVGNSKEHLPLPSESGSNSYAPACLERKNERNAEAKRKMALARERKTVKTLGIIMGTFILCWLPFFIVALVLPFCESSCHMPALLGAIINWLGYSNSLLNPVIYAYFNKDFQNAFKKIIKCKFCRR
Procedure: 1.4.1 Screening of YL Series Compounds
(1) Preparation of Membrane Proteins in Rat Hippocampi
Wister rats, 220-260 g, female and male, were sacrificed by decapitation and hippocampis were rapidly separated, weighed and to which homogenized in 10 times volume of Tris-HCl buffer solution (50 mM Tris-HCl, 5 mM MgCl2,1 mM EDTA, 0.5% (WN) BSA, 1 mM PMSF, 3 μg/ml proteinase inhibitor, 0.1% NaN3, 0.32M sucrose, pH 7.4) at 15,000 rpm for 30 s, total 5 times. The homogenate was centrifuged under 1000×g for 10 minutes and the supernatant was then centrifuged under 39000×g for 10 minutes. The precipitate was collected, and resuspended with 10 times volume of Tris-HCl buffer solution (pH 7.4) relative to the original weight, then centrifuged under 39000×g for 10 minutes. The precipitate was washed with the same buffer solution, centrifuged under 39000×g for 10 minutes and the precipitate was suspended with the above buffer solution. After sub-packaged (the whole operation procedures were performed under ice bath), the product was stored at −80° C. The protein concentration was measured by Lowrry method.
1) In the 5-HT1A receptor binding test, tubes are firstly placed under reaction condition of 25° C.
2) To all of the tubes, the receptor proteins extracted from rat hippocampi in an amount of 100 μg were added in sequence.
4) To the test tubes, 30 μl of the compound in corresponding concentrations (used for screening: 10^−5, 10^−7, 10^−9M) was added in sequence.
6) Tris-HCl buffer solution (50 mM Tris-HCl, 1 mM EDTA, 5 mM MgCl2, 0.1 mM PMSF, 0.1% NaN3, pH 7.4) was supplied to all of the tubes to reach a volume of 300 μl.
7) The reaction was performed at 25° C. for 1 h.
8) Then samples were applied to 49-type glass fibre filter, vacuum suction filtered, then washed three times with 2 ml ice-cold Tris-HCl buffer solution (50 mM Tris-HCl buffer solution, 1 mM EDTA, 5 mM MgCl2, 1 mM PMSF, 0.1% NaN3, 3 μg/ml proteinase inhibitor, pH 7.4). […] The radio-activity was measured by a scintillation counter.

[2] = molecular target: T2, 5-HT transport protein (SERT) (Rattus norvegicus, UniProt P31652); test: Screening: competitive binding test to SERT using [3H]-citalopram; conditions: [3H]-citalopram 1 nM; for inhibition at 10 µM / inhibition at 0.1 µM: read-out: Inhibition percent (I %), competitive binding to 5-HT transport protein (SERT)
T2 construct: Preparation of Membrane Proteins in Rat Hippocampi; from tissue; host or cells: Wistar rat hippocampus
Procedure: The homogenate was centrifuged under 1000×g for 10 minutes and the supernatant was then centrifuged under 39000×g for 10 minutes. The precipitate was collected, and resuspended with 10 times volume of Tris-HCl buffer solution (pH 7.4) relative to the original weight, then centrifuged under 39000×g for 10 minutes. The precipitate was washed with the same buffer solution, centrifuged under 39000×g for 10 minutes and the precipitate was suspended with the above buffer solution. After sub-packaged (the whole operation procedures were performed under ice bath), the product was stored at −80° C. The protein concentration was measured by Lowrry method.

[3] = test system: mice; test: Tail suspension test in mice; type: in vivo; conditions: 30 mg/kg p.o., acute, 1 h before test
From the text: 2.1.2 Tail Suspension Test in Mice
Tail suspension test in mice is an acute behavioral despair model established by Stem, et al. (1985).
1) Experimental device: an experimental frame with spacing boards which dividing the experimental frame into 2 experimental chambers (20×25×30 cm). A clamp is mounted on a through cross rod in the chamber for clamping mice tail so as to suspend the mice.
2) Experimental method: Male Kunming mice weighing 20-25 g. The mice were intragastrically administered with YL-0911 or vehicle (distilled water). After 1 h, wrap adhesive tape around the mouse's tail in position three quarters of the distance from the base of the tail and then suspend the animals by passing the suspension hook through the adhesive tape 5 cm above the table. The duration of immobility in the last 4 min of total 6 min test was recorded.

[4] = test system: mice; test: Hole board test in mice; type: in vivo; conditions: 10 mg/kg p.o., long-term (23 days)
Procedure: Hole board test, an animal model of anxiety established by Boissie, et al (1962), was performed in mice.
1) Experimental device: a transparent Perspex box (40×40×27 cm) which had four holes (3 cm in diameter, 1.8 cm in depth) in the floor. The distance of each hole center to its closest wall is 10 cm.
2) Experimental method: Male Kunming mice weighing 20-25 g. The mice were intragastrically administered with YL-0911 or vehicle (distilled water). After 23 days, the mice were placed at center of the hole board with their backs facing to the observer. A head dip was scored if the animal's head dipped into the hole at least up to eye level The latency to the first head-dip, the number of head-dips and the time spent in head-dipping were recorded for 5 min.

[5] = test system: mice; test: Forced swim test in mice; type: in vivo; conditions: 40 mg/kg p.o., acute, 1 h before test
Procedure: 2.1.1 Forced Swim Test in Mice
Forced swim test in mice is an acute behavioral despair model established by Porsolt, et al.
(1) Experimental device: a glass cylinder (diameter 13 cm, height 24 cm, containing 10 cm of water maintained at 25).
(2) Experimental method: Male Kunming mice weighing 20-25 g. The mice were gently put in the water 1 h after intragastrically drug administration, and then the duration of immobility in the last 4 min of total 6 min test was recorded.

T2 sequence (P31652 whole entry): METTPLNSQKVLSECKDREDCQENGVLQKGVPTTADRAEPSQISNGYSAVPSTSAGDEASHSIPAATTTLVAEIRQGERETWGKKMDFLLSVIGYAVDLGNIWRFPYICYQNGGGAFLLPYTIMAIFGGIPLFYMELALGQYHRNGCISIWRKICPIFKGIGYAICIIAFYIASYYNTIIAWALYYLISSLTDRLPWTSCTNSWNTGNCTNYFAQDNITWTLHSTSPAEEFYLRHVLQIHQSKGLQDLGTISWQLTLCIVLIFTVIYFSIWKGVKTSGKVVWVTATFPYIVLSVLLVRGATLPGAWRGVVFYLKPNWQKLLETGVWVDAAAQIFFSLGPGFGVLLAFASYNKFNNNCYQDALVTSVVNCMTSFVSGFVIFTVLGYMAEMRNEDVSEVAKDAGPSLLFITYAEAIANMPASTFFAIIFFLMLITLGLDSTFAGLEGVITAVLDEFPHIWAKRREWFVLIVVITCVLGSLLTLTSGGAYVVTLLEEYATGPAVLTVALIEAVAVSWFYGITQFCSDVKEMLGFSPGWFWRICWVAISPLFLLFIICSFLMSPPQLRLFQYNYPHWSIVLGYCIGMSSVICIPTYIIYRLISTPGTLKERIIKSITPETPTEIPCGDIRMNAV

O=c1ccccn1CC1(O)CCN(Cc2ccccc2F)CC1 [Compound 2, 1-{[1-(2-fluorobenzyl)-4-hydroxypiperidin-4-yl]-methyl}-pyridin-2(1H)-one] showed an inhibition at 10 µM ([1]; compound 10^-5 mol/L) of 100%, an inhibition at 0.1 µM ([1]; compound 10^-7 mol/L) of 58% and an inhibition at 10 µM ([2]; compound 10^-5 mol/L) of 100%. It also gave an inhibition at 0.1 µM ([2]; compound 10^-7 mol/L) of 50%.

Molecule O=c1ccccn1CC1(O)CCN(Cc2ccc(F)cc2)CC1 [Compound 3, 1-{[1-(4-fluorobenzyl)-4-hydroxypiperidin-4-yl]-methyl}-pyridin-2(1H)-one] has an inhibition at 10 µM ([1]; compound 10^-5 mol/L) of 100% and an inhibition at 0.1 µM ([1]; compound 10^-7 mol/L) of 10%.

With O=c1ccccn1CC1(O)CCN(Cc2ccc(F)cc2F)CC1 [Compound 4, 1-{[1-(2,4-difluorobenzyl)-4-hydroxypiperidin-4-yl]-methyl}-pyridin-2(1H)-p-one] the “Inhibition percent (I %), competitive binding to 5-HT1A receptor” value ([1]; compound 10^-5 mol/L) was 100%, the “Inhibition percent (I %), competitive binding to 5-HT1A receptor” value ([1]; compound 10^-7 mol/L) was 57% and the “Inhibition percent (I %), competitive binding to 5-HT transport protein (SERT)” value ([2]; compound 10^-5 mol/L) was 100%. For the same molecule, the “Inhibition percent (I %), competitive binding to 5-HT transport protein (SERT)” value ([2]; compound 10^-7 mol/L) was 58%.

O=c1ccc(Br)cn1CC1(O)CCN(Cc2ccccc2)CC1 [Compound 5, 5-bromo-1-[(1-benzyl-4-hydroxypiperidin-4-yl)-methyl]-pyridin-2(1H)-one] was tested, and the inhibition at 10 µM ([1]; compound 10^-5 mol/L) was 94%, the inhibition at 0.1 µM ([1]; compound 10^-7 mol/L) was 62% and the inhibition at 10 µM ([2]; compound 10^-5 mol/L) was 100%. It also gave an inhibition at 0.1 µM ([2]; compound 10^-7 mol/L) of 77%.

In the case of O=c1ccc(Br)cn1CC1(O)CCN(Cc2ccccc2F)CC1 [Compound 6, 5-bromo-1-{[1-(2-fluorobenzyl)-4-hydroxypiperidin-4-yl]-methyl}-pyridin-2(1H)-one], the inhibition at 10 µM ([1]; compound 10^-5 mol/L) is reported as 100%, the inhibition at 0.1 µM ([1]; compound 10^-7 mol/L) is reported as 74% and the inhibition at 10 µM ([2]; compound 10^-5 mol/L) is reported as 87%. For the same molecule, the inhibition at 0.1 µM ([2]; compound 10^-7 mol/L) was 44%.

In the case of O=c1ccc(Br)cn1CC1(O)CCN(Cc2ccc(F)cc2)CC1 [Compound 7, 5-bromo-1-{[1-(4-fluorobenzyl)-4-hydroxypiperidin-4-yl]-methyl}-pyridin-2(M)-one], the “Inhibition percent (I %), competitive binding to 5-HT1A receptor” value ([1]; compound 10^-5 mol/L) is reported as 59% and the “Inhibition percent (I %), competitive binding to 5-HT1A receptor” value ([1]; compound 10^-7 mol/L) is reported as 2%.

For O=c1ccc(Br)cn1CC1(O)CCN(Cc2ccc(F)cc2F)CC1 [Compound 8, 5-bromo-1-{[1-(2,4-fluorobenzyl)-4-hydroxypiperidin-4-yl]-methyl}-pyridin-2(M)-one], the “Inhibition percent (I %), competitive binding to 5-HT1A receptor” value ([1]; compound 10^-5 mol/L) was 42% and the “Inhibition percent (I %), competitive binding to 5-HT1A receptor” value ([1]; compound 10^-7 mol/L) was 19%.

Cc1ccn(CC2(O)CCN(Cc3ccccc3)CC2)c(=O)c1 [Compound 9, 1-[(1-benzyl-4-hydroxypiperidin-4-yl)-methyl]-4-methylpyridin-2(M)-one] was tested, and the “Inhibition percent (I %), competitive binding to 5-HT1A receptor” value ([1]; compound 10^-5 mol/L) was 100% and the “Inhibition percent (I %), competitive binding to 5-HT1A receptor” value ([1]; compound 10^-7 mol/L) was 25%.

For Cc1ccn(CC2(O)CCN(Cc3ccccc3F)CC2)c(=O)c1 [Compound 10, 1-{[1-(2-fluorobenzyl)-4-hydroxypiperidin-4-yl]-methyl}-4-methylpyridin-2(M)-one], the “Inhibition percent (I %), competitive binding to 5-HT1A receptor” value ([1]; compound 10^-5 mol/L) was 76% and the “Inhibition percent (I %), competitive binding to 5-HT1A receptor” value ([1]; compound 10^-7 mol/L) was 37%.

In the case of Cc1ccn(CC2(O)CCN(Cc3ccc(F)cc3)CC2)c(=O)c1 [Compound 11, 1-{[1-(4-fluorobenzyl)-4-hydroxypiperidin-4-yl]-methyl}-4-methylpyridin-2(M)-one], the “Inhibition percent (I %), competitive binding to 5-HT1A receptor” value ([1]; compound 10^-5 mol/L) is reported as 57% and the “Inhibition percent (I %), competitive binding to 5-HT1A receptor” value ([1]; compound 10^-7 mol/L) is reported as 14%.

For Cc1ccn(CC2(O)CCN(Cc3ccc(F)cc3F)CC2)c(=O)c1 [Compound 12, 1-{[1-(2,4-difluorobenzyl)-4-hydroxypiperidin-4-yl]-methyl}-4-methylpyridin-2(M)-one], the “Inhibition percent (I %), competitive binding to 5-HT1A receptor” value ([1]; compound 10^-5 mol/L) was 61% and the “Inhibition percent (I %), competitive binding to 5-HT1A receptor” value ([1]; compound 10^-7 mol/L) was 30%.

With CNCCC(Oc1ccc(C(F)(F)F)cc1)c1ccccc1 (centres unmarked) [Fluoxetine, fluoxetine, reference compound] the “Immobility time (s), tail suspension test” value [3] was 56.2 ± 41.7 s, the “the latency to the first head-dip” value [4] was 42.70 ± 9.43 s and the “Number of Head dips” value ([4]; 5 min) was 9.60 ± 1.49. The “Time of head dipping” value ([4]; 5 min) was 6.31 ± 1.03 s.

In the case of CN(C)CCCN1c2ccccc2CCc2ccccc21 [Imipramine, reference compound], the “Immobility time (s), forced swim test” value [5] is reported as 88.0 ± 58.2 s.

From patent US8921563B2, “1-[(4-hydroxypiperidin-4-yl)methyl]pyridin-2(1H)-one derivatives, preparation methods and uses thereof” (Institue of Pharmacology and Toxicology Academy of Military …, priority 2010, dated 2014)
